Data published in patent publication US20090226500A1, “SUTURES AND ANTI-SCARRING AGENTS” (Angiotech Pharmaceuticals, Inc, priority 2006, published 2009).
Where a name gives a salt, the structure may show the parent alone. Read-outs that look alike come from different tables or passages of the source. One block for each molecule: values may come before it.

How the values were obtained:
[1] = tested on: E. coli UB1005 C498; assay: MIC microtitre broth dilution, E. coli; type: cell-based; settings: E. coli UB1005 C498 wt Gram−, 24 h
Experimental: MIC assays were conducted essentially as described by Amsterdam, D 1996, “Susceptibility testing of antimicrobials in liquid media”, p. 52-111, in Loman, V, ed. Antibiotics in laboratory medicine, 4th ed Williams and Wilkins, Baltimore, Md.

[2] = tested on: IL-8 production by THP-1 cells; assay: IL-8 production by macrophages; type: cell-based, human; settings: THP-1 cells stimulated with opsonized zymosan, 24 hours, read-out: IC50 IL-8 production
Experimental: (§1) The human macrophage cell line, THP-1 was plated in a 12 well plate such that each well contains 1×10^6 cells in 2 ml of media containing 10% FCS. Opsonized zymosan was prepared by resuspending 20 mg of zymosan A in 2 ml of ddH2O and homogenizing until a uniform suspension was obtained. Homogenized zymosan was pelleted at 250 g, resuspended in 4 ml of human serum for a final concentration of 5 mg/ml, and incubated in a 37° C. water bath for 20 minutes to enable opsonization. Geldanamycin was prepared in DMSO at a concentration of 10^−2 M and serially diluted 10-fold to give a range of stock concentrations (10^−8 M to 10^−2 M).
(§2) THP-1 cells were stimulated to produce IL-8 by the addition of 1 mg/ml opsonized zymosan. Geldanamycin was added to THP-1 cells by directly adding DMSO stock solutions, prepared earlier, at a 1/1000 dilution, to each well. Each drug concentration was tested in triplicate wells. Plates were incubated at 37° C. for 24 hours.
After a 24-hour stimulation, supernatants were collected to quantify IL-8 production. IL-8 concentrations in the supernatants were determined by ELISA using recombinant human IL-8 to obtain a standard curve. A 96-well MAXISORB plate was coated with 100 μL of anti-human IL-8 Capture Antibody diluted in Coating Buffer (0.1M sodium carbonate pH 9.5) overnight at 4° C. The dilution of Capture Antibody used was lot-specific and was determined empirically. Capture antibody was then aspirated and the plate washed 3 times with Wash Buffer (PBS, 0.05% TWEEN-20). Plates were blocked for 1 hour at room temperature with 200 μL/well of Assay Diluent (PBS, 10% FCS pH 7.0). After blocking, plates were washed 3 times with Wash Buffer. Standards and sample dilutions were prepared as follows: (a) sample supernatants were diluted 1/100 and 1/1000; (b) recombinant human IL-8 was prepared at 200 pg/ml and serially diluted to yield as standard curve of 3.1 pg/ml to 200 pg/ml Sample supernatants and standards were assayed in triplicate and were incubated at room temperature for 2 hours after addition to the plate coated with Capture Antibody The plates were washed 5 times and incubated with 100 μL of Working Detector (biotinylated anti-human IL-8 detection antibody+avidin-HRP) for 1 hour at room temperature. Following this incubation, the plates were washed 7 times and 100 μL of Substrate Solution (Tetramethylbenzidine, H2O2) was added to plates and incubated for 30 minutes at room temperature. Stop Solution (2 NH2SO4) was then added to the wells and a yellow color reaction was read at 450 nm with A correction at 570 nm. Mean absorbance was determined from triplicate data readings and the mean background was subtracted. IL-8 concentration values were obtained from the standard curve. […] The IC50 values for the following additional compounds were determined using this assay: IC50 (nM): 17-AAG, 56; mycophenolic acid, 549; resveratrol, 507; rapamycin, 4; 41; SP600125, 344; halofuginone, 641; D-mannose-6-phosphate, 220; epirubicin hydrochloride, 654; topotemay, 257; mithramycin, 33; daunorubicin, 421; celastrol, 490; chromomycin A3, 36

[3] = tested on: MCP-1 production by THP-1 cells; assay: MCP-1 production by macrophages; type: cell-based, human; settings: read-out: IC50 MCP-1 production
Experimental: as §1, with “g and” for “g,”, “mg/ml” for “mg/ml,”
as §2, with “MCP-1” for “IL-8”, “[…]” for “Geldanamycin”
After a 24-hour stimulation, supernatants were collected to quantify MCP-1 production. MCP-1 concentrations in the supernatants were determined by ELISA using recombinant human MCP-1 to obtain a standard curve. A 96-well MaxiSorb plate was coated with 100 μL of anti-human MCP-1 Capture Antibody diluted in Coating Buffer (0.1M sodium carbonate pH 9.5) overnight at 4° C. The dilution of Capture Antibody used was lot-specific and was determined empirically. Capture antibody was then aspirated and the plate washed 3 times with Wash Buffer (PBS, 0.05% TWEEN-20). Plates were blocked for 1 hour at room temperature with 200 μL/well of Assay Diluent (PBS, 10% FCS pH 7.0). After blocking, plates were washed 3 times with Wash Buffer. […] Sample supernatants and standards were assayed in triplicate and were incubated at room temperature for 2 hours after addition to the plate coated with Capture Antibody. The plates were washed 5 times and incubated with 100 μL of Working Detector (biotinylated anti-human MCP-1 detection antibody+avidin-HRP) for 1 hour at room temperature. Following this incubation, the plates were washed 7 times and 100 μL of Substrate Solution (tetramethylbenzidine, H2O2) was added to plates and incubated for 30 minutes at room temperature. […] Mean absorbance was determined from triplicate data readings and the mean background was subtracted. MCP-1 concentration values were obtained from the standard curve.

[4] = tested on: Smooth muscle cells; assay: Proliferation of smooth muscle cells; type: cell-based; settings: 72 hours, CYQUANT; read-out: IC50 proliferation of smooth muscle cells
Experimental: Smooth muscle cells at 70-90% confluency were trypsinized, replated at 600 cells/well in media in 96-well plates and allowed to attachment overnight. Paclitaxel was prepared in DMSO at a concentration of 10^−2 M and diluted 10-fold to give a range of stock concentrations (10^−8 M to 10^−2 M). […] Each drug concentration was tested in triplicate wells. Plates containing cells and paclitaxel were incubated at 37° C. for 72 hours.
To terminate the assay, the media was removed by gentle aspiration A 1/400 dilution of CYQUANT 400×GR dye indicator (Molecular Probes; Eugene, Oreg.) was added to 1× Cell Lysis buffer, and 200 μL of the mixture was added to the wells of the plate. Plates were incubated at room temperature, protected from light for 3-5 minutes.

[5] = tested on: IL-1β production by THP-1 cells; assay: IL-1β production by macrophages; type: cell-based, human; settings: read-out: IC50 IL-1β production
[6] = tested on: human fibroblasts; assay: Cell proliferation of fibroblasts; type: cell-based; settings: Fibroblast, 72 hours, CYQUANT, read-out: IC50 cell proliferation of fibroblasts
Outline: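 Human fibroblasts plated at 600 cells/well, attached overnight, then exposed to drug in triplicate for 72 h at 37°C. Cell content read with CYQUANT GR dye in lysis buffer after 3-5 min at room temperature.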

[7] = tested on: TNFα production by THP-1 cells; assay: TNF-alpha production by macrophages; type: cell-based, human; settings: read-out: IC50 TNFα production
Experimental: as §1, with “12-well” for “12 well”, “g and” for “g,”, “mg/ml” for “mg/ml,”, “opsonization.” for “opsonization. Geldanamycin was prepared in DMSO at a concentration of 10^−2 M and serially diluted 10-fold to give a range of stock concentrations (10^−8 M to 10^−2 M).”
THP-1 cells were stimulated to produce TNFα by the addition of 1 mg/ml opsonized zymosan. […] Each drug concentration was tested in triplicate wells. Plates were incubated at 37° C. for 24 hours.
After a 24-hour stimulation, supernatants were collected to quantify TNFα production. TNFα concentrations in the supernatants were determined by ELISA using recombinant human TNFα to obtain a standard curve A 96-well MaxiSorb plate was coated with 100 μL of anti-human TNFα Capture Antibody diluted in Coating Buffer (0.1M sodium carbonate pH 9 5) overnight at 4° C. The dilution of Capture Antibody used was lot-specific and was determined empirically. Capture antibody was then aspirated and the plate washed 3 times with Wash Buffer (PBS, 0.05% TWEEN-20) Plates were blocked for 1 hour at room temperature with 200 μL/well of Assay Diluent (PBS, 10% FCS pH 7.0). After blocking, plates were washed 3 times with Wash Buffer. […] Sample supernatants and standards were assayed in triplicate and were incubated at room temperature for 2 hours after addition to the plate coated with Capture Antibody. The plates were washed 5 times and incubated with 100 μL of Working Detector (biotinylated anti-human TNFα detection antibody+avidin-HRP) for 1 hour at room temperature. Following this incubation, the plates were washed 7 times and 100 μL of Substrate Solution (tetramethylbenzidine, H2O2) was added to plates and incubated for 30 minutes at room temperature. […] Mean absorbance was determined from triplicate data readings and the mean background was subtracted. TNFα concentration values were obtained from the standard curve.

[8] = THP-1 cells stimulated with opsonized zymosan, 24 hours
[9] = Homo sapiens, THP-1 cells stimulated with opsonized zymosan, 24 hours

Molecule: Sc1ncc2[nH]cnc2n1 [2-mercaptopurine]
Minimum inhibitory concentration [1]: N

Molecule: Sc1ncnc2nc[nH]c12 [6-mercaptopurine]
Minimum inhibitory concentration [1]: N

IC50 [2]: 56 nM
IC50 [3, 8]: 135 nM
Molecule: C=CCNC1=C2C[C@@H](C)C[C@H](OC)[C@H](O)[C@@H](C)/C=C(\C)[C@H](OC(N)=O)[C@@H](OC)/C=C\C=C(/C)C(=O)NC(=CC1=O)C2=O [17-AAG, 17-allylaminogeldanamycin]
IC50 [4]: 47 nM

IC50 ([2]; Homo sapiens): 220 nM
Molecule: O=C[C@@H](O)[C@@H](O)[C@H](O)[C@H](O)COP(=O)(O)O [D-mannose-6-phosphate]

IC50 [5, 9]: 642 nM
Molecule: C[C@H](NC(=O)C(=O)Nc1ccccc1C(C)(C)C)C(=O)N[C@@H](CC(=O)O)C(=O)COc1c(F)c(F)cc(F)c1F [IDN-6556]

IC50 ([2]; Homo sapiens): 344 nM
Molecule: Oc1c2ccccc2c2c3c(cccc13)N=N2 [SP600125]
IC50 [6]: 1200 to 10000 nM

Molecule: COc1ccc(C[C@H]2NC[C@H](O)[C@H]2OC(C)=O)cc1 [anisomycin]
IC50 [5, 8]: 127 nM
IC50 [3, 8]: 71 nM
IC50 [4]: 276 nM

Molecule: CO[C@@H]1[C@H](O)C[C@@H](O[C@@H]2C[C@H](Oc3cc4cc5c(c(O)c4c(O)c3C)C(=O)[C@@H](O[C@H]3C[C@@H](O[C@H]4C[C@@H](O[C@H]6C[C@](C)(O)[C@@H](OC(C)=O)[C@H](C)O6)[C@H](O)[C@@H](C)O4)[C@H](O)[C@@H](C)O3)[C@H]([C@H](OC)C(=O)[C@@H](O)[C@@H](C)O)C5)O[C@H](C)[C@@H]2OC(C)=O)O[C@@H]1C [chromomycin A3]
IC50 [7, 8]: 394 nM
IC50 [5]: 148 nM
IC50 [2]: 36 nM
IC50 [3, 8]: 37 nM
IC50 [4]: 12 nM

Molecule: COc1cccc2c1C(=O)c1c(O)c3c(c(O)c1C2=O)C[C@@](O)(C(C)=O)C[C@@H]3O[C@H]1C[C@H](N)[C@H](O)[C@H](C)O1 [daunorubicin]
IC50 [7, 8]: 195 nM
IC50 [5]: 517 nM
IC50 [2]: 421 nM
IC50 [3, 8]: 570 nM
IC50 [4]: 50 nM

IC50 [5, 8]: 774 nM
IC50 [2]: 654 nM
Molecule: COc1cccc2c1C(=O)c1c(O)c3c(c(O)c1C2=O)C[C@@](O)(C(=O)CO)C[C@@H]3O[C@H]1C[C@H](N)[C@@H](O)[C@H](C)O1 [epirubicin hydrochloride]
IC50 [4]: 19 nM

Molecule: O=C1c2ccccc2-[n+]2ccc3c([nH]c4ccccc43)c21 [fascaplycin, Fascaplysin]
IC50 ([7]; Homo sapiens, THP-1, 24 h): 701 nM
IC50 [6]: 600 to 1200 nM
IC50 ([5]; Homo sapiens, THP-1, 24 h): 425 nM
IC50 ([3]; Homo sapiens, THP-1, 24 h): 215 nM
IC50 [4]: 510 nM

Molecule: O=C(CC1NCCCC1O)Cn1cnc2cc(Br)c(Cl)cc2c1=O (stereo not shown) [halofuginone]
IC50 [6]: 10 to 100 nM
IC50 ([5]; Homo sapiens, THP-1, 24 h): 919 nM
IC50 ([2]; Homo sapiens): 641 nM
IC50 [3, 9]: 9 nM
IC50 [4]: 81 nM

Molecule: O=C1[O][Pt]2([NH][C@@H]3CCCC[C@H]3[NH]2)[O]C1=O [oxalipatin, Oxaliplatin]
IC50 [5, 8]: 107 nM

IC50 ([2]; Homo sapiens): 507 nM
Molecule: Oc1ccc(C=Cc2cc(O)cc(O)c2)cc1 [resveratrol]

Molecule: CC[C@@]1(O)C(=O)OCc2c1cc1n(c2=O)Cc2cc3c(CN(C)C)c(O)ccc3nc2-1 [topotemay, Topotecan]
IC50 [5, 8]: 509 nM
IC50 [2]: 257 nM
IC50 [3, 8]: 514 nM
IC50 [4]: 51 nM

Molecule: Mithramycin A
IC50 [7, 8]: 570 nM
IC50 [2]: 33 nM
IC50 [3, 8]: 18 nM
IC50 [4]: 19 nM

IC50 [7, 8]: 51 nM
IC50 [5, 8]: 0.48 nM
IC50 [2]: 4 nM
IC50 [3, 8]: 0.05 nM
Molecule: rapamycin
